From patent US8440658B2, “Cyclic urea inhibitors of 11β-hydroxysteroid dehydrogenase 1” (Vitae Pharmaceuticals, Inc., priority 2007, dated 2013)

Target: T1, human 11β-HSD1 (Homo sapiens, UniProt P28845)
T1 construct: expressed in transfected cells; host or cells: CHO cells (microsomes)
Test: Inhibition of microsomal preparation of 11β-HSD1 (SPA, [3H]cortisone to [3H]cortisol)
Assay type: biochemical
Details: for Average % inhibition at 100 nM / inhibition at 0.1 µM: compound at 100 nM; for IC50: microsomes from CHO cells overexpressing human 11β-HSD1, 160 nM [3H]cortisone, read-out: Biological Test Example 1 (IC50 class)
Protocol: The inhibition of microsomal preparation of 11β-HSD1 by compounds of the invention was measured essentially as previously described (K. Solly, S. S. Mundt, H. J. Zokian, G. J. Ding, A. Hermanowski-Vosatka, B. Strulovici, and W. Zheng, High-Throughput Screening of 11-Beta-Hydroxysteroid Dehydrogenase Type 1 in Scintillation Proximity Assay Format. Assay Drug Dev Technol 3 (2005) 377-384). All reactions were carried out at room temperature in 96 well clear flexible PET Microbeta plates (PerkinElmer). The assay begins by dispensing 49 μl of substrate solution (50 mM HEPES, pH 7.4, 100 mM KCl, 5 mM NaCl, 2 mM MgCl2, 2 mM NADPH and 160 nM [^3H]cortisone (1 Ci/mmol)) and mixing in 1 μL of the test compounds in DMSO previously diluted in half-log increments (8 points) starting at 0.1 mM. After a 10 minute pre-incubation, 50 μL of enzyme solution containing microsomes isolated from CHO cells overexpressing human 11β-HSD1 (10-20 μg/ml of total protein) was added, and the plates were incubated for 90 minutes at room temperature. The reaction was stopped by adding 50 μl of the SPA beads suspension containing 10 μM 18β-glycyrrhetinic acid, 5 mg/ml protein A coated YSi SPA beads (GE Healthcare) and 3.3 μg/ml of anti-cortisol antibody (East Coast Biologics) in Superblock buffer (Bio-Rad). The plates were shaken for 120 minutes at room temperature, and the SPA signal corresponding to [^3H]cortisol was measured on a Microbeta plate reader.

T1 sequence (P28845 whole entry): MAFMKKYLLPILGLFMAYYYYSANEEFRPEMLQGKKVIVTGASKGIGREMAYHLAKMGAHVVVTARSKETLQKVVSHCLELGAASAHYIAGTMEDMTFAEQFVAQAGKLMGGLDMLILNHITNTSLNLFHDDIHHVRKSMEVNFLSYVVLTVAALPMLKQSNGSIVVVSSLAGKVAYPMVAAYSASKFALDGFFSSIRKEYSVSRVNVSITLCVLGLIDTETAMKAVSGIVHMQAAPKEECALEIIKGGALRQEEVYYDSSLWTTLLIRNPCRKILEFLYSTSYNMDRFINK

Row | SMILES | Average % inhibition at 100 nM | IC50 | Average % inhibition at 100 nM (0.1 µM) | inhibition at 0.1 µM
1 | C[C@H](N1CCC(CCCO)(c2ccccc2)OC1=O)C(C)(C)O (single isomer, unassigned) [EXAMPLE 10 Isomer 2] | – | > 100 nM | 13.4% | –
2 | C[C@H](N1CC[C@](CCCO)(c2ccc(F)cc2)OC1=O)C(C)(C)C [EXAMPLE 2] | – | < 100 nM | – | 98.6%
3 | C[C@H](N1CCC(CCCO)(c2ccccc2)OC1=O)C(C)(C)O (single isomer, unassigned) [EXAMPLE 10 Isomer 1] | – | < 100 nM | 66.8% | –
4 | CC(C)(C)N1CCC(CCCO)(c2ccc(F)cc2)OC1=O (single isomer, unassigned) [EXAMPLE 9 Isomer 2, 3-tert-butyl-6-(4-fluorophenyl)-6-(3-hydroxypropyl)-1,3-oxazinan-2-one] | – | > 100 nM | 25.45% | –
5 | CC(C)(C)N1CCC(CCCO)(c2ccccc2)OC1=O (single isomer, unassigned) [EXAMPLE 8 Isomer 2, 3-tert-butyl-6-(3-hydroxypropyl)-6-phenyl-1,3-oxazinan-2-one] | – | > 100 nM | 22.1% | –
6 | C[C@H](N1CC[C@](CCCO)(c2ccccc2)OC1=O)C(C)(C)C [EXAMPLE 3 Isomer 1] | – | < 100 nM | – | 94%
7 | CC(C)(C)N1CCC(CCCO)(c2ccccc2)OC1=O (single isomer, unassigned) [EXAMPLE 8 Isomer 1, 3-tert-butyl-6-(3-hydroxypropyl)-6-phenyl-1,3-oxazinan-2-one] | – | < 100 nM | 84.0% | –
8 | CC(C)(C)N1CCC(CCCO)(c2ccc(F)cc2)OC1=O (single isomer, unassigned) [EXAMPLE 9 Isomer 1, 3-tert-butyl-6-(4-fluorophenyl)-6-(3-hydroxypropyl)-1,3-oxazinan-2-one] | – | < 100 nM | 74.7% | –
9 | C[C@H](N1CC[C@](CCC(N)=O)(c2ccc(F)cc2)OC1=O)C(C)(C)C [EXAMPLE 4, 3-((R)-3-((S)-3,3-dimethylbutan-2-yl)-6-(4-fluorophenyl)-2-oxo-1,3-oxazinan-6-yl)propanamide] | – | < 100 nM | – | 91.8%

Second part, the molecule after the results:

Row | Average % inhibition at 100 nM | IC50 | Average % inhibition at 100 nM (0.1 µM) | inhibition at 0.1 µM | SMILES
10 | 36.5% | < 100 nM | – | – | C[C@H](N1CC[C@@](CCO)(c2ccc(F)cc2)OC1=O)C(C)(C)C (single isomer, unassigned; isomer 2) [EXAMPLE 1 Isomer 2]
11 | 94.4% | < 100 nM | – | – | C[C@H](N1CC[C@](CCO)(c2ccc(F)cc2)OC1=O)C(C)(C)C (single isomer, unassigned; isomer 1) [EXAMPLE 1 Isomer 1]
12 | – | < 100 nM | – | 97% | C[C@H](N1CC[C@](CCCO)(c2ccc(F)cc2)NC1=O)C(C)(C)C [EXAMPLE 11, (R)-1-((S)-3,3-dimethylbutan-2-yl)-4-(4-fluorophenyl)-4-(3-hydroxypropyl)tetrahydropyrimidin-2(1H)-one]
13 | – | < 100 nM | – | 93.3% | C[C@H](N1CC[C@](CCO)(c2ccc(F)cc2)NC1=O)C(C)(C)C [EXAMPLE 7, (S)-1-((S)-3,3-dimethylbutan-2-yl)-4-(4-fluorophenyl)-4-(2-hydroxyethyl)tetrahydropyrimidin-2(1H)-one]
14 | – | > 100 nM | – | 47.2% | C=CCC1(c2ccccc2)CCN([C@@H](C)C(C)(C)O)C(=O)O1 (single isomer, unassigned) [EXAMPLE 12 Isomer 1]
15 | – | < 100 nM | – | 91% | C[C@H](N1CC[C@](CCNS(C)(=O)=O)(c2ccc(F)cc2)OC1=O)C(C)(C)C [EXAMPLE 5, N-(2-((S)-3-((S)-3,3-dimethylbutan-2-yl)-6-(4-fluorophenyl)-2-oxo-1,3-oxazinan-6-yl)ethyl)methanesulfonamide]
16 | – | < 100 nM | – | 95.9% | C[C@H](N1CC[C@](CCCNS(C)(=O)=O)(c2ccc(F)cc2)OC1=O)C(C)(C)C [EXAMPLE 6, N-(3-((R)-3-((S)-3,3-dimethylbutan-2-yl)-6-(4-fluorophenyl)-2-oxo-1,3-oxazinan-6-yl)propyl)methanesulfonamide]
17 | – | < 100 nM | – | 58.8% | C[C@H](N1CC[C@@](CCCO)(c2ccccc2)OC1=O)C(C)(C)C [EXAMPLE 3 Isomer 2, (S)-3-((S)-3,3-dimethylbutan-2-yl)-6-(3-hydroxypropyl)-6-phenyl-1,3-oxazinan-2-one]
18 | – | < 100 nM | 53.9% | – | C=CCC1(c2ccccc2)CCN([C@@H](C)C(C)(C)O)C(=O)O1 (single isomer, unassigned) [EXAMPLE 12 Isomer 2]
